Test results published in publication PMC5218480 (PLoS ONE, 2017).

Tested on: MV-4-11 cells
Assay: Gene expression microarray analysis (Affymetrix PrimeView) and GSEA
Format: cell-based, human
Set-up: RFU PODN (11730768_x_at) / Fold change /veh PODN (11730768_x_at) / RFU LINC00158 (11744669_a_at) / Fold change /veh LINC00158 (11744669_a_at) / RFU DUSP10 (11751237_a_at) / Fold change /veh DUSP10 (11751237_a_at) / RFU ID3 (11757404_x_at) / Fold change /veh ID3 (11757404_x_at) / RFU PLEKHG5 (11737974_s_at) / Fold change /veh PLEKHG5 (11737974_s_at) / RFU LRRC4B (11730491_at) / Fold change /veh LRRC4B (11730491_at) / RFU GIMAP4 (11747438_a_at) / Fold change /veh GIMAP4 (11747438_a_at) / RFU KRT8 (11758183_x_at) / Fold change /veh KRT8 (11758183_x_at) / RFU CNN1 (11734310_a_at) / Fold change /veh CNN1 (11734310_a_at) / RFU VPS37D (11726825_at) / Fold change /veh VPS37D (11726825_at) / RFU C10orf10 (11716522_x_at) / Fold change /veh C10orf10 (11716522_x_at) / RFU KIR2DL2 /// KIR2DL4 /// KIR2DL5A /// KIR2DL5B /// KIR2DS1 /// KIR2DS2 /// KIR2DS3 /// KIR2DS4 /// KIR3DL3 /// KIR3DL3 /// KIR3DS1 (11738374_at) / Fold change /veh KIR2DL2 /// KIR2DL4 /// KIR2DL5A /// KIR2DL5B /// KIR2DS1 /// KIR2DS2 /// KIR2DS3 /// KIR2DS4 /// KIR3DL3 /// KIR3DL3 /// KIR3DS1 (11738374_at) / RFU C1QL1 (11718748_at) / Fold change /veh C1QL1 (11718748_at) / RFU TMPRSS4 (11747572_a_at) / Fold change /veh TMPRSS4 (11747572_a_at) / RFU HAMP (11756126_x_at) / Fold change /veh HAMP (11756126_x_at) / RFU RNFT2 (11725882_a_at) / Fold change /veh RNFT2 (11725882_a_at) / RFU NR4A2 (11747474_a_at) / Fold change /veh NR4A2 (11747474_a_at) / RFU ABCC12 (11746883_a_at) / Fold change /veh ABCC12 (11746883_a_at) / RFU TMEM136 (11760407_x_at) / Fold change /veh TMEM136 (11760407_x_at) / RFU CLDN22 /// WWC2 (11732394_at) / Fold change /veh CLDN22 /// WWC2 (11732394_at) / RFU HLA-DPB1 (11760878_x_at) / Fold change /veh HLA-DPB1 (11760878_x_at) / RFU SPINT1 (11716480_a_at) / Fold change /veh SPINT1 (11716480_a_at) / RFU GAP43 (11754022_s_at) / Fold change /veh GAP43 (11754022_s_at) / RFU A4GNT (11735810_at) / Fold change /veh A4GNT (11735810_at) / RFU PRB3 (11715151_x_at) / Fold change /veh PRB3 (11715151_x_at) / RFU TUBB4B (11761932_at) / Fold change /veh TUBB4B (11761932_at) / RFU CAPN14 (11732068_a_at) / Fold change /veh CAPN14 (11732068_a_at) / RFU TMCC2 (11721928_a_at) / Fold change /veh TMCC2 (11721928_a_at) / RFU IRGQ (11745062_a_at) / Fold change /veh IRGQ (11745062_a_at) / RFU FAM174B (11720279_a_at) / Fold change /veh FAM174B (11720279_a_at) / RFU TMPRSS4 (11748680_a_at) / Fold change /veh TMPRSS4 (11748680_a_at) / RFU FAM212B (11763350_a_at) / Fold change /veh FAM212B (11763350_a_at) / RFU PLEKHG5 (11743358_a_at) / Fold change /veh PLEKHG5 (11743358_a_at) / RFU ZSCAN30 (11745921_a_at) / Fold change /veh ZSCAN30 (11745921_a_at) / RFU CMKLR1 (11741424_a_at) / Fold change /veh CMKLR1 (11741424_a_at) / RFU LOC101060620 /// MAPK8IP1 (11723275_at) / Fold change /veh LOC101060620 /// MAPK8IP1 (11723275_at) / RFU SPTSSB (11747773_x_at) / Fold change /veh SPTSSB (11747773_x_at) / RFU PRSS12 (11739890_at) / Fold change /veh PRSS12 (11739890_at) / RFU BIN1 (11741810_x_at) / Fold change /veh BIN1 (11741810_x_at) / RFU WNT11 (11732464_a_at) / Fold change /veh WNT11 (11732464_a_at) / RFU C10orf10 (11716521_a_at) / Fold change /veh C10orf10 (11716521_a_at) / RFU C5orf56 (11738089_at) / Fold change /veh C5orf56 (11738089_at) / RFU CYB561 (11721691_x_at) / Fold change /veh CYB561 (11721691_x_at) / RFU ANKRD19P (11752326_a_at) / Fold change /veh ANKRD19P (11752326_a_at) / RFU OR2T12 /// OR2T33 /// OR2T8 (11738714_s_at) / Fold change /veh OR2T12 /// OR2T33 /// OR2T8 (11738714_s_at) / RFU VCAN (11748164_a_at) / Fold change /veh VCAN (11748164_a_at) / RFU JSRP1 (11732532_at) / Fold change /veh JSRP1 (11732532_at) / RFU KRTAP10-11 (11738290_x_at) / Fold change /veh KRTAP10-11 (11738290_x_at) / RFU MYO3A (11730013_a_at) / Fold change /veh MYO3A (11730013_a_at) / RFU EBF3 (11725865_a_at) / Fold change /veh EBF3 (11725865_a_at) / RFU CAMK2N1 (11719241_x_at) / Fold change /veh CAMK2N1 (11719241_x_at) / RFU C5orf56 (11738088_a_at) / Fold change /veh C5orf56 (11738088_a_at) / RFU OLFML3 (11715873_a_at) / Fold change /veh OLFML3 (11715873_a_at) / RFU LOC100653217 /// NTM (11731650_a_at) / Fold change /veh LOC100653217 /// NTM (11731650_a_at) / RFU MAPK11 (11762145_a_at) / Fold change /veh MAPK11 (11762145_a_at) / RFU FIZ1 (11724087_x_at) / Fold change /veh FIZ1 (11724087_x_at) / RFU OASL (11726364_x_at) / Fold change /veh OASL (11726364_x_at) / RFU SOX15 (11748057_x_at) / Fold change /veh SOX15 (11748057_x_at) / RFU CD79A (11719716_a_at) / Fold change /veh CD79A (11719716_a_at) / RFU HIST1H1D (11736915_at) / Fold change /veh HIST1H1D (11736915_at) / RFU CASKIN2 (11723855_a_at) / Fold change /veh CASKIN2 (11723855_a_at) / RFU LOC730098 (11760151_x_at) / Fold change /veh LOC730098 (11760151_x_at) / RFU OR4N2 (11742367_at) / Fold change /veh OR4N2 (11742367_at) / RFU PRRT2 (11749266_a_at) / Fold change /veh PRRT2 (11749266_a_at) / RFU SNX32 (11753110_a_at) / Fold change /veh SNX32 (11753110_a_at) / RFU CDHR5 (11726645_a_at) / Fold change /veh CDHR5 (11726645_a_at) / RFU RCAN1 (11760418_a_at) / Fold change /veh RCAN1 (11760418_a_at) / RFU FAM167A (11723789_a_at) / Fold change /veh FAM167A (11723789_a_at) / RFU FAM26E (11764081_at) / Fold change /veh FAM26E (11764081_at) / RFU ISYNA1 (11749810_s_at) / Fold change /veh ISYNA1 (11749810_s_at) / RFU ACY1 (11761880_at) / Fold change /veh ACY1 (11761880_at) / RFU 11764098_at / Fold change /veh 11764098_at / RFU SAMD14 (11745864_x_at) / Fold change /veh SAMD14 (11745864_x_at) / RFU NPB (11741838_a_at) / Fold change /veh NPB (11741838_a_at) / RFU TMPRSS6 (11731388_a_at) / Fold change /veh TMPRSS6 (11731388_a_at) / RFU KRTAP10-2 (11738614_at) / Fold change /veh KRTAP10-2 (11738614_at) / RFU ARHGAP8 /// PRR5-ARHGAP8 (11727945_x_at) / Fold change /veh ARHGAP8 /// PRR5-ARHGAP8 (11727945_x_at) / RFU KRTAP5-7 /// NADSYN1 (11734609_at) / Fold change /veh KRTAP5-7 /// NADSYN1 (11734609_at) / RFU RASL12 (11751679_a_at) / Fold change /veh RASL12 (11751679_a_at) / RFU CDKN2B (11736163_a_at) / Fold change /veh CDKN2B (11736163_a_at) / RFU PRF1 (11729649_at) / Fold change /veh PRF1 (11729649_at) / RFU, ZNF638 /// ZNF638-IT1 / Fold change vs veh, ZNF638 /// ZNF638-IT1 / RFU, PANK3 / Fold change vs veh, PANK3 / RFU, SH3YL1 / Fold change vs veh, SH3YL1 / RFU, ZEB2 / Fold change vs veh, ZEB2 / RFU, NRIP1 / Fold change vs veh, NRIP1 / RFU, PTTG1IP / Fold change vs veh, PTTG1IP / RFU, CAPN2 / Fold change vs veh, CAPN2 / RFU, MED14 / Fold change vs veh, MED14 / RFU, SNORA58 / Fold change vs veh, SNORA58 / RFU, C1orf63 / Fold change vs veh, C1orf63 / RFU, LRRFIP1 / Fold change vs veh, LRRFIP1 / RFU, NDUFAF7 / Fold change vs veh, NDUFAF7 / RFU, SLC12A2 / Fold change vs veh, SLC12A2 / RFU, IBTK / Fold change vs veh, IBTK / RFU, ESF1 / Fold change vs veh, ESF1 / Fold change vs veh, TMEM50B / RFU, TAOK1 / Fold change vs veh, TAOK1 / RFU, ACBD3 / Fold change vs veh, ACBD3 / RFU, TMA16 / Fold change vs veh, TMA16 / RFU, RWDD3 / Fold change vs veh, RWDD3 / RFU, BCAT1 / Fold change vs veh, BCAT1 / RFU, EDEM3 / Fold change vs veh, EDEM3 / RFU, TMEM33 / Fold change vs veh, TMEM33 / RFU, WDR75 / Fold change vs veh, WDR75 / RFU, AHCTF1 / Fold change vs veh, AHCTF1 / RFU, TFRC / Fold change vs veh, TFRC / RFU, ZDHHC17 / Fold change vs veh, ZDHHC17 / RFU, NOM1 / Fold change vs veh, NOM1 / RFU, ARL8B / Fold change vs veh, ARL8B / RFU, ZBTB11 / Fold change vs veh, ZBTB11 / RFU, TAMM41 / Fold change vs veh, TAMM41 / RFU, KIAA1704 /// LOC100996395 / Fold change vs veh, KIAA1704 /// LOC100996395 / RFU, ING1 / Fold change vs veh, ING1 / RFU, TRMT61B / Fold change vs veh, TRMT61B / RFU, FUBP3 / Fold change vs veh, FUBP3 / RFU, TP53 / Fold change vs veh, TP53 / RFU, TNKS2 / Fold change vs veh, TNKS2 / RFU, ZFP14 / Fold change vs veh, ZFP14 / RFU, ACTR2 / Fold change vs veh, ACTR2 / RFU, PPP3R1 / Fold change vs veh, PPP3R1 / RFU, PIK3R1 / Fold change vs veh, PIK3R1 / RFU, HNRNPA1 / Fold change vs veh, HNRNPA1 / RFU, RNF170 / Fold change vs veh, RNF170 / RFU, ZNF28 / Fold change vs veh, ZNF28 / RFU, RNGTT / Fold change vs veh, RNGTT / RFU, OGT / Fold change vs veh, OGT / RFU, BRD1 / Fold change vs veh, BRD1 / RFU, MARS / Fold change vs veh, MARS / RFU, ZNF655 / Fold change vs veh, ZNF655 / RFU, FAHD1 / Fold change vs veh, FAHD1 / RFU, BDP1 / Fold change vs veh, BDP1 / RFU, LRRCC1 / Fold change vs veh, LRRCC1 / RFU, ARID1A / Fold change vs veh, ARID1A / RFU, ZNF146 / Fold change vs veh, ZNF146 / RFU, ZNF330 / Fold change vs veh, ZNF330 / RFU, GPN3 / Fold change vs veh, GPN3 / RFU, C9orf123 / Fold change vs veh, C9orf123 / RFU, N4BP2L2 / Fold change vs veh, N4BP2L2 / RFU, ARFIP1 / Fold change vs veh, ARFIP1 / RFU, FAM179B / Fold change vs veh, FAM179B / RFU, BCL10 / Fold change vs veh, BCL10 / RFU, UHRF1BP1L / Fold change vs veh, UHRF1BP1L / RFU, BET1 / Fold change vs veh, BET1 / RFU, CNOT2 / Fold change vs veh, CNOT2 / RFU, ZNF268 / Fold change vs veh, ZNF268 / Fold change vs veh, ZNF507 / RFU, DGCR2 / Fold change vs veh, DGCR2 / RFU, WDSUB1 / Fold change vs veh, WDSUB1 / Fold change vs veh, HSP90B1 /// MIR3652 / RFU, ADSS / Fold change vs veh, ADSS / RFU, GK / Fold change vs veh, GK / RFU, ZNF148 / Fold change vs veh, ZNF148 / RFU, TAF9 / Fold change vs veh, TAF9 / RFU, SLC1A5 / Fold change vs veh, SLC1A5 / RFU, SLMO2 / Fold change vs veh, SLMO2 / RFU, ABCC4 / Fold change vs veh, ABCC4 / RFU, LOC101060439 /// RAP1B / Fold change vs veh, LOC101060439 /// RAP1B / RFU, RFX7 / Fold change vs veh, RFX7 / RFU, GTPBP10 / Fold change vs veh, GTPBP10 / RFU, CNEP1R1 / Fold change vs veh, CNEP1R1 / RFU, BIVM-ERCC5 /// ERCC5 / Fold change vs veh, BIVM-ERCC5 /// ERCC5 / RFU, ILF3 / Fold change vs veh, ILF3 / RFU 11762660_at / Fold change /veh 11762660_at / RFU VCAN (11757783_s_at) / Fold change /veh VCAN (11757783_s_at) / RFU DDX43 (11728927_at) / Fold change /veh DDX43 (11728927_at) / RFU KRT8 (11758188_x_at) / Fold change /veh KRT8 (11758188_x_at) / RFU NKD1 (11759106_at) / Fold change /veh NKD1 (11759106_at) / RFU SRD5A1 (11742802_a_at) / Fold change /veh SRD5A1 (11742802_a_at) / RFU TPSAB1 /// TPSB2 (11721975_s_at) / Fold change /veh TPSAB1 /// TPSB2 (11721975_s_at) / RFU GSTM3 (11746129_a_at) / Fold change /veh GSTM3 (11746129_a_at) / RFU IL23R (11737362_x_at) / Fold change /veh IL23R (11737362_x_at) / RFU TMEM51 (11727254_a_at) / Fold change /veh TMEM51 (11727254_a_at) / RFU PIWIL2 (11732686_x_at) / Fold change /veh PIWIL2 (11732686_x_at) / RFU ORM1 (11744905_x_at) / Fold change /veh ORM1 (11744905_x_at) / RFU CCDC152 (11743942_at) / Fold change /veh CCDC152 (11743942_at) / RFU ECM1 (11717891_a_at) / Fold change /veh ECM1 (11717891_a_at) / RFU IL23R (11748794_a_at) / Fold change /veh IL23R (11748794_a_at) / RFU TNFAIP8L3 (11732012_x_at) / Fold change /veh TNFAIP8L3 (11732012_x_at) / RFU MBOAT4 (11741988_at) / Fold change /veh MBOAT4 (11741988_at) / RFU 11764193_at / Fold change /veh 11764193_at / RFU TMEM53 (11763286_at) / Fold change /veh TMEM53 (11763286_at) / RFU MAGEB2 (11727129_at) / Fold change /veh MAGEB2 (11727129_at) / RFU TMEM200A (11744735_a_at) / Fold change /veh TMEM200A (11744735_a_at) / RFU CCDC152 (11751479_a_at) / Fold change /veh CCDC152 (11751479_a_at) / RFU FAM211A (11726209_a_at) / Fold change /veh FAM211A (11726209_a_at) / RFU RGS16 (11746705_a_at) / Fold change /veh RGS16 (11746705_a_at) / RFU VCAN (11755009_s_at) / Fold change /veh VCAN (11755009_s_at) / RFU RHOB (11743442_s_at) / Fold change /veh RHOB (11743442_s_at) / RFU RGS16 (11720943_a_at) / Fold change /veh RGS16 (11720943_a_at) / RFU RGS16 (11720944_at) / Fold change /veh RGS16 (11720944_at) / RFU, VPS4B / Fold change vs veh, VPS4B / RFU, CREB1 / Fold change vs veh, CREB1 / RFU, DNAJC13 / Fold change vs veh, DNAJC13 / RFU, GNAQ / Fold change vs veh, GNAQ / RFU, CDK5R1 / Fold change vs veh, CDK5R1 / RFU, ZRANB3 / Fold change vs veh, ZRANB3 / RFU, CUL4A / Fold change vs veh, CUL4A / RFU, CCNY / Fold change vs veh, CCNY / RFU, UFL1 / Fold change vs veh, UFL1 / RFU, COG3 / Fold change vs veh, COG3 / RFU, DIAPH2 / Fold change vs veh, DIAPH2 / RFU, SKA2 / Fold change vs veh, SKA2 / RFU, AFF3 / Fold change vs veh, AFF3 / RFU, LMF1 / Fold change vs veh, LMF1 / RFU, IPO11 / Fold change vs veh, IPO11 / RFU, DFFB / Fold change vs veh, DFFB / RFU, FOXP1 / Fold change vs veh, FOXP1 / RFU, CARD8 / Fold change vs veh, CARD8 / RFU, STRN3 / Fold change vs veh, STRN3 / RFU, ADK / Fold change vs veh, ADK / RFU, RASSF2 / Fold change vs veh, RASSF2 / RFU, WIPF1 / Fold change vs veh, WIPF1 / RFU, LARP1B / Fold change vs veh, LARP1B / RFU, RASA1 / Fold change vs veh, RASA1 / RFU, RB1 / Fold change vs veh, RB1 / RFU, PPFIA1 / Fold change vs veh, PPFIA1 / RFU, MAT2A / Fold change vs veh, MAT2A / RFU, CCT5 / Fold change vs veh, CCT5 / RFU, WDR92 / Fold change vs veh, WDR92 / RFU, CUX1 / Fold change vs veh, CUX1 / RFU, TTC7A / Fold change vs veh, TTC7A / RFU, TMEM135 / Fold change vs veh, TMEM135 / RFU, DEPTOR / Fold change vs veh, DEPTOR / RFU, CPM / Fold change vs veh, CPM / RFU, DNAJB6 / Fold change vs veh, DNAJB6 / RFU, CACNA2D3 / Fold change vs veh, CACNA2D3 / RFU, DTX4 / Fold change vs veh, DTX4 / RFU, TFCP2 / Fold change vs veh, TFCP2 / RFU, GMCL1 /// GMCL1P1 / Fold change vs veh, GMCL1 /// GMCL1P1 / RFU, AEBP2 / Fold change vs veh, AEBP2 / RFU, SNHG1 /// SNORD22 /// SNORD25 /// SNORD26 /// SNORD27 /// SNORD28 /// SNORD29 /// SNORD31 / Fold change vs veh, SNHG1 /// SNORD22 /// SNORD25 /// SNORD26 /// SNORD27 /// SNORD28 /// SNORD29 /// SNORD31 / Fold change (Aza/veh), C12orf56 (ProbeSet 11735607_a_at) / Fold change (ACY-1035/veh), C12orf56 (ProbeSet 11735607_a_at) / Fold change (Aza/veh), FGFR1OP (ProbeSet 11751329_s_at) / Fold change (ACY-1035/veh), FGFR1OP (ProbeSet 11751329_s_at) / Fold change (Aza/veh), VPS36 (ProbeSet 11739960_a_at) / Fold change (ACY-1035/veh), VPS36 (ProbeSet 11739960_a_at) / RFU SYPL1 (11715823_x_at) / Fold change /veh SYPL1 (11715823_x_at) / RFU IGFBP7 (11715501_s_at) / Fold change /veh IGFBP7 (11715501_s_at) / RFU REEP3 (11722064_at) / Fold change /veh REEP3 (11722064_at) / RFU IGLL1 (11728026_x_at) / Fold change /veh IGLL1 (11728026_x_at): dose or concentration left out as unconfirmed
Conditions: ProbeSet 11728443_a_at; LIST B

Q: For `Nc1ncn([C@@H]2O[C@H](CO)[C@@H](O)[C@H]2O)c(=O)n1` [azacitidine], which “RFU, TAOK1” value is on record?
A: Its value is 59.03 RFU.
